Laboratory results taken from the NIST ThermoML archive (doi:10.1021/je0340755).

Key:
[1] = 101.33 kPa, Liquid; for viscosity: Capillary tube (Ostwald / Ubbelohde) method
[2] = refractive index (Na D-line) (dimensionless); conditions: 298.15 K; 101.33 kPa; Liquid; Standard Abbe refractometry

CCC(O)CO (stereo not given) [1,2-butanediol]
[1]
Conditions | mass density [kg/m3] | viscosity [mPa·s]
298.15 K | 998.86 | 57.46
308.15 K | 991.42 | 30.18
318.15 K | 983.93 | 17.41
328.15 K | 976.09 | 10.9
338.15 K | 968.11 | 7.257

[1], Linear variable-path acoustic interferometer
Conditions | speed of sound [m/s]
298.15 K | 1452
308.15 K | 1423.8
318.15 K | 1396.2
328.15 K | 1387
338.15 K | 1366

Conditions | refractive index
[2] | 1.4374

CC(O)CO (stereo not given) [1,2-propanediol]
[1]
Conditions | mass density [kg/m3] | viscosity [mPa·s]
298.15 K | 1032.77 | 43.43
308.15 K | 1025.4 | 24.25
318.15 K | 1017.32 | –
328.15 K | 1009.56 | 9.691
338.15 K | 1001.81 | 7.044

[1], Linear variable-path acoustic interferometer
Conditions | speed of sound [m/s]
298.15 K | 1500.1
308.15 K | 1488.9
318.15 K | 1438.1
328.15 K | 1401
338.15 K | 1382.8

Conditions | refractive index
[2] | 1.4314

CC(O)CCO (stereo not given) [1,3-butanediol]
[1]
Conditions | mass density [kg/m3] | speed of sound [m/s] | viscosity [mPa·s]
298.15 K | 1000.03 | 1522.1 | 97.25
308.15 K | 994.22 | 1492.1 | 52.5
318.15 K | 988.7 | 1472 | 30.49
328.15 K | 979.18 | 1453.9 | 18.91
338.15 K | 971.91 | 1436.1 | 12.28

Conditions | refractive index
[2] | 1.439

OCCCCO [1,4-butanediol]
[1]
Conditions | mass density [kg/m3] | speed of sound [m/s] | viscosity [mPa·s]
298.15 K | 1012.57 | 1605.1 | 72.62
308.15 K | 1006.4 | 1588 | 44.87
318.15 K | 1000.76 | 1570.8 | 29.07
328.15 K | – | 1552.1 | 19.48
338.15 K | 987.93 | 1529 | 13.49

Conditions | refractive index
[2] | 1.4442

CC(O)C(C)O (stereo not given) [2,3-butanediol]
[1]
Conditions | mass density [kg/m3] | speed of sound [m/s] | viscosity [mPa·s]
298.15 K | 998.57 | 1470.2 | 44.68
308.15 K | 992.11 | 1440 | 22.95
318.15 K | 984.13 | 1412.2 | 12.8
328.15 K | 970.58 | 1392 | 7.722
338.15 K | 961.97 | 1373.9 | 5.195

Conditions | refractive index
[2] | 1.4366

OCCCO [propan-1,3-diol]
[1]
Conditions | mass density [kg/m3] | viscosity [mPa·s]
298.15 K | 1049.99 | 40.07
308.15 K | 1043.71 | 27.25
318.15 K | 1037.37 | 17.01
328.15 K | 1030.96 | 11.28
338.15 K | 1024.47 | 7.939

[1], Linear variable-path acoustic interferometer
Conditions | speed of sound [m/s]
298.15 K | 1636.1
308.15 K | 1616
318.15 K | 1599.2
328.15 K | 1575.9
338.15 K | 1557

Conditions | refractive index
[2] | 1.4386

O [water]
[1]
Conditions | viscosity [mPa·s]
298.15 K | 0.89
308.15 K | 0.719
318.15 K | 0.596
328.15 K | 0.503
338.15 K | 0.438

[1], Linear variable-path acoustic interferometer
Conditions | speed of sound [m/s]
298.15 K | 1498
308.15 K | 1519
318.15 K | 1535.1
328.15 K | 1545
338.15 K | 1551

Conditions | refractive index
[2] | 1.3323
